Test results taken from patent US20250099634A1, “METHOD OF TREATING CANCER” (Novartis AG, priority 2023, published 2025).
Like-named read-outs stand apart in the source and are kept apart here.

Legend:
[1] = NETTER-2 worst post-baseline hematology abnormalities based on CTC grades (Safety Set); type: in vivo, human; conditions: randomized treatment period; for Worst post-baseline abnormality: Hemoglobin (g/L)-Decrease / Worst post-baseline abnormality: Hemoglobin (g/L)-Increase / Worst post-baseline abnormality: Leukocytes (10E9/L)-Decrease / Worst post-baseline abnormality: Leukocytes (10E9/L)-Increase / Worst post-baseline abnormality: Lymphocytes (10E9/L)-Decrease / Worst post-baseline abnormality: Lymphocytes (10E9/L)-Increase / Worst post-baseline abnormality: Neutrophils (10E9/L)-Decrease / Worst post-baseline abnormality: Platelets (10E9/L)-Decrease: Safety Set
Text: (§1) The laboratory assessments require that blood samples for hematology and blood chemistry, and a urine sample for urinalysis are taken. Laboratory assessments will be performed at the investigational site.
(§2) Blood tests performed 4 weeks after any treatment cannot serve as baseline values for the next treatment.
(§3) All laboratory data will be listed by treatment group, subject, and visit/time and if normal ranges are available abnormalities will be flagged. Summary statistics will be provided by treatment and visit/time. Shift tables using the low/normal/high/(low and high) classification will be used to compare baseline to the worst on-treatment value.
(§4) Grading of laboratory values will be assigned programmatically as per NCI Common Terminology Criteria for Adverse Events (CTCAE) version 5.0 or current version. The calculation of CTCAE grades will be based on the observed laboratory values only, clinical assessments will not be taken into account.
(§5) The following summaries will be generated separately for hematology, and biochemistry tests: • 1. Listing of all laboratory data with values flagged to show the corresponding CTCAE grades if applicable and the classifications relative to the laboratory normal ranges • 2. For laboratory tests where grades are defined by CTCAE, • 3. Worst post-baseline CTCAE grade (regardless of the baseline status). Each subject will be counted only once for the worst grade observed post-baseline. • 4. Shift tables using CTCAE grades to compare baseline to the worst on-treatment value • 5. For laboratory tests where grades are not defined by CTCAE, • 6. Shift tables using the low/normal/high/(low and high) classification to compare baseline to the worst on-treatment value.

[2] = NETTER-2 deaths (Safety Set); type: in vivo, human
[3] = NETTER-2 worst post-baseline biochemistry abnormalities based on CTC grades (Safety Set); type: in vivo, human; conditions: randomized treatment period; for Worst post-baseline abnormality: Alanine Aminotransferase (U/L)-Increase / Worst post-baseline abnormality: Albumin (g/L)-Decrease / Worst post-baseline abnormality: Alkaline Phosphatase (U/L)-Increase / Worst post-baseline abnormality: Aspartate Aminotransferase (U/L)-Increase / Worst post-baseline abnormality: Bilirubin (umol/L)-Increase / Worst post-baseline abnormality: Calcium Corrected (mmol/L)-Increase / Worst post-baseline abnormality: Creatinine (umol/L)-Increase / Worst post-baseline abnormality: Potassium (mmol/L)-Decrease / Worst post-baseline abnormality: Potassium (mmol/L)-Increase / Worst post-baseline abnormality: Sodium (mmol/L)-Decrease / Worst post-baseline abnormality: Sodium (mmol/L)-Increase: Safety Set
Text: as §1, §2, §3, §4, §5

[4] = All grades, randomized treatment period, Safety Set
[5] = Grade >=3, randomized treatment period, Safety Set
[6] = all grades, randomized treatment period
[7] = most frequent AEs, summary table

## C[C@@H](O)[C@@H]1NC(=O)[C@H](CCCCN)NC(=O)[C@@H](Cc2c[nH]c3ccccc23)NC(=O)[C@H](Cc2ccccc2)NC(=O)[C@@H](NC(=O)[C@H](N)Cc2ccccc2)CSSC[C@@H](C(=O)N[C@H](CO)[C@@H](C)O)NC1=O [Octreotide LAR, octreotide]
[4]
  AEs leading to discontinuation of Any Treatment (Lutathera, Octreotide): 2 (2.7) n (%)
  AEs leading to discontinuation of Octreotide: 2 (2.7) n (%)
  AEs leading to dose interruption of Any Treatment (Lutathera, Octreotide): 11 (15.1) n (%)
  AEs leading to dose interruption of Octreotide: 11 (15.1) n (%)
  AEs leading to dose reduction of Any Treatment (Lutathera, Octreotide): 1 (1.4) n (%)
  AEs leading to dose reduction of Octreotide: 1 (1.4) n (%)
  Adverse event: Abdominal pain: 20 (27.4) n (%)
  Adverse event: Alanine aminotransferase increased: 10 (13.7) n (%)
  Adverse event: Alopecia: 1 (1.4) n (%)
  Adverse event: Anaemia: 5 (6.8) n (%)
  Adverse event: Aspartate aminotransferase increased: 8 (11.0) n (%)
  Adverse event: Asthenia: 9 (12.3) n (%)
  Adverse event: COVID-19: 10 (13.7) n (%)
  Adverse event: Constipation: 6 (8.2) n (%)
  Adverse event: Decreased appetite: 7 (9.6) n (%)
  Adverse event: Diarrhoea: 25 (34.2) n (%)
  Adverse event: Gamma-glutamyltransferase increased: 8 (11.0) n (%)
  Adverse event: Headache: 5 (6.8) n (%)
  Adverse event: Hyperglycaemia: 11 (15.1) n (%)
  Adverse event: Lymphocyte count decreased: 0 n (%)
  Adverse event: Oedema peripheral: 6 (8.2) n (%)
  Adverse event: Platelet count decreased: 4 (5.5) n (%)
  Adverse event: Vomiting: 6 (8.2) n (%)
  Adverse event: Weight increased: 5 (6.8) n (%)
  Adverse event: White blood cell count decreased: 3 (4.1) n (%)
  Adverse events: 69 (94.5) n (%)
  Adverse events Related to Any Treatment: 43 (58.9) n (%)
  Adverse events Related to Octreotide: 43 (58.9) n (%)
  Adverse events: Number of subjects with at least one event: 69 (94.5) n (%)
[5]
  AEs leading to discontinuation of Any Treatment (Lutathera, Octreotide): 2 (2.7) n (%)
  AEs leading to discontinuation of Octreotide: 2 (2.7) n (%)
  AEs leading to dose interruption of Any Treatment (Lutathera, Octreotide): 5 (6.8) n (%)
  AEs leading to dose interruption of Octreotide: 5 (6.8) n (%)
  AEs leading to dose reduction of Any Treatment (Lutathera, Octreotide): 1 (1.4) n (%)
  AEs leading to dose reduction of Octreotide: 1 (1.4) n (%)
  Adverse event: Abdominal pain: 3 (4.1) n (%)
  Adverse event: Alanine aminotransferase increased: 2 (2.7) n (%)
  Adverse event: Alopecia: 0 n (%)
  Adverse event: Anaemia: 1 (1.4) n (%)
  Adverse event: Aspartate aminotransferase increased: 2 (2.7) n (%)
  Adverse event: Asthenia: 0 n (%)
  Adverse event: COVID-19: 0 n (%)
  Adverse event: Constipation: 0 n (%)
  Adverse event: Decreased appetite: 0 n (%)
  Adverse event: Diarrhoea: 1 (1.4) n (%)
  Adverse event: Gamma-glutamyltransferase increased: 2 (2.7) n (%)
  Adverse event: Headache: 0 n (%)
  Adverse event: Hyperglycaemia: 2 (2.7) n (%)
  Adverse event: Lymphocyte count decreased: 0 n (%)
  Adverse event: Oedema peripheral: 1 (1.4) n (%)
  Adverse event: Platelet count decreased: 0 n (%)
  Adverse event: Vomiting: 1 (1.4) n (%)
  Adverse event: Weight increased: 0 n (%)
  Adverse event: White blood cell count decreased: 0 n (%)
  Adverse events: 20 (27.4) n (%)
  Adverse events Related to Any Treatment: 3 (4.1) n (%)
  Adverse events Related to Octreotide: 3 (4.1) n (%)
  Adverse events: Number of subjects with at least one event: 20 (27.4) n (%)
[6]
  adverse event by preferred term: abdominal pain: 27.4%
  adverse event by preferred term: diarrhoea: 34.2%
[7]
  Incidence of AEs: Abdominal pain: 20 (27.4) (%)
  Incidence of AEs: Diarrhoea: 25 (34.2) (%)
Randomized treatment period
  AEs leading to discontinuation of Lutathera and/or Octreotide: 2.7%
  AEs leading to discontinuation of Octreotide: 2.7%
  Any AEs: 94.5%
  Grade 3/4 AE: GGT increased: 2.7%
  Grade 3/4 AE: Lymphocyte count decreased: 0%
  Grade 3/4 AE: abdominal pain: 4.1%
  Grade 3/4 AE: small intestinal obstruction: 0%
  Grade ≥3 AEs: 27.4%
  Grade ≥3 AEs, Treatment-related: 4.1%
[1]; All grades (CTCAE v5.0)
  Worst post-baseline abnormality: Hemoglobin (g/L)-Decrease: 42 (57.5) n (%)
  Worst post-baseline abnormality: Hemoglobin (g/L)-Increase: 2 (2.7) n (%)
  Worst post-baseline abnormality: Leukocytes (10E9/L)-Decrease: 15 (20.5) n (%)
  Worst post-baseline abnormality: Leukocytes (10E9/L)-Increase: 0 n (%)
  Worst post-baseline abnormality: Lymphocytes (10E9/L)-Decrease: 45 (61.6) n (%)
  Worst post-baseline abnormality: Lymphocytes (10E9/L)-Increase: 3 (4.1) n (%)
  Worst post-baseline abnormality: Neutrophils (10E9/L)-Decrease: 9 (12.3) n (%)
  Worst post-baseline abnormality: Platelets (10E9/L)-Decrease: 15 (20.5) n (%)
[1]; Grade 3/4 (CTCAE v5.0)
  Worst post-baseline abnormality: Hemoglobin (g/L)-Decrease: 2 (2.7) n (%)
  Worst post-baseline abnormality: Hemoglobin (g/L)-Increase: 0 n (%)
  Worst post-baseline abnormality: Leukocytes (10E9/L)-Decrease: 0 n (%)
  Worst post-baseline abnormality: Leukocytes (10E9/L)-Increase: 0 n (%)
  Worst post-baseline abnormality: Lymphocytes (10E9/L)-Decrease: 2 (2.7) n (%)
  Worst post-baseline abnormality: Lymphocytes (10E9/L)-Increase: 0 n (%)
  Worst post-baseline abnormality: Neutrophils (10E9/L)-Decrease: 0 n (%)
  Worst post-baseline abnormality: Platelets (10E9/L)-Decrease: 0 n (%)
[1]
  Grade 3/4 hematologic lab abnormality: lymphocytes decrease: 2.7%
[2]; Safety Set
  Number of Subjects who Died (Overall): 14 (19.2) n (%)
  Number of Subjects who Died (Overall), primary reason Adverse Event: 1 (1.4) n (%)
  Number of Subjects who Died on-treatment in cross-over period (within 30 days of last dose), primary reason Disease under Study: 1 (1.4) n (%)
  Number of Subjects who Died on-treatment in randomized treatment period (within 30 days of last dose), primary reason Disease under Study: 4 (5.5) n (%)
  Number of subjects who died in the post-treatment follow up period: 9 (12.3) n (%)
  Number of subjects who died in the post-treatment follow up period, primary reason Adverse Event: 1 (1.4) n (%)
  Number of subjects who died in the post-treatment follow up period, primary reason Disease under Study: 8 (11.0) n (%)
[2]; during the study
  cause of death: adverse event: 1.4%
  subjects died during the study: 19.2%
[2]; randomized treatment period
  subjects died within 30 days after the last dose: 5.5%
[3]; All grades (CTCAE v5.0)
  Worst post-baseline abnormality: Alanine Aminotransferase (U/L)-Increase: 38 (52.1) n (%)
  Worst post-baseline abnormality: Albumin (g/L)-Decrease: 17 (23.3) n (%)
  Worst post-baseline abnormality: Alkaline Phosphatase (U/L)-Increase: 40 (54.8) n (%)
  Worst post-baseline abnormality: Aspartate Aminotransferase (U/L)-Increase: 40 (54.8) n (%)
  Worst post-baseline abnormality: Bilirubin (umol/L)-Increase: 17 (23.3) n (%)
  Worst post-baseline abnormality: Calcium Corrected (mmol/L)-Increase: 8 (11.0) n (%)
  Worst post-baseline abnormality: Creatinine (umol/L)-Increase: 15 (20.5) n (%)
  Worst post-baseline abnormality: Potassium (mmol/L)-Decrease: 10 (13.7) n (%)
  Worst post-baseline abnormality: Potassium (mmol/L)-Increase: 16 (21.9) n (%)
  Worst post-baseline abnormality: Sodium (mmol/L)-Decrease: 12 (16.4) n (%)
  Worst post-baseline abnormality: Sodium (mmol/L)-Increase: 6 (8.2) n (%)
[3]; Grade 3/4 (CTCAE v5.0)
  Worst post-baseline abnormality: Alanine Aminotransferase (U/L)-Increase: 3 (4.1) n (%)
  Worst post-baseline abnormality: Albumin (g/L)-Decrease: 1 (1.4) n (%)
  Worst post-baseline abnormality: Alkaline Phosphatase (U/L)-Increase: 3 (4.1) n (%)
  Worst post-baseline abnormality: Aspartate Aminotransferase (U/L)-Increase: 5 (6.8) n (%)
  Worst post-baseline abnormality: Bilirubin (umol/L)-Increase: 4 (5.5) n (%)
  Worst post-baseline abnormality: Calcium Corrected (mmol/L)-Increase: 1 (1.4) n (%)
  Worst post-baseline abnormality: Creatinine (umol/L)-Increase: 1 (1.4) n (%)
  Worst post-baseline abnormality: Potassium (mmol/L)-Decrease: 2 (2.7) n (%)
  Worst post-baseline abnormality: Potassium (mmol/L)-Increase: 3 (4.1) n (%)
  Worst post-baseline abnormality: Sodium (mmol/L)-Decrease: 1 (1.4) n (%)
  Worst post-baseline abnormality: Sodium (mmol/L)-Increase: 0 n (%)
[3]
  Grade 3/4 biochemical lab abnormality: GGT increase: 28.8%
  Grade 3/4 biochemical lab abnormality: aspartate aminotransferase increase: 6.8%
  Grade 3/4 biochemical lab abnormality: bilirubin increase: 5.5%
